Assay results taken from ChEMBL document CHEMBL1201862, “PubChem BioAssay data set” (2004).
Several values for one entry are separate records, joined by “and”; a condition that tells them apart may be missing. Identical values can stand only once. Counter-ions that a name gives are not always drawn.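 1) Cells in 96-well plates. 2) Compound, 48 h, 5 concentrations. 3) Linear interpolation between surrounding doses. 4) Unreached endpoint = highest concentration. The concentration for 50% growth inhibition is given as GI50.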 Activity calls are given as the source filed them. No stated cut-off is given here; in the data, active = GI50 up to about 1.1 µM and inactive = higher.

Legend:
Assay in all cases: NCI tumour cell line growth inhibition, 48 h
EKVX = tested on: EKVX
HCT-116 = tested on: HCT-116
HOP-92 = tested on: HOP-92
Hs-578T = tested on: Hs-578T
K562 = tested on: K562
MDA-MB-435 = tested on: MDA-MB-435
NCI-H23 = tested on: NCI-H23
OVCAR-3 = tested on: OVCAR-3
OVCAR-5 = tested on: OVCAR-5
OVCAR-8 = tested on: OVCAR-8
PC-3 = tested on: PC-3
SF-268 = tested on: SF-268
SK-MEL-28 = tested on: SK-MEL-28
SK-MEL-2 = tested on: SK-MEL-2
SK-OV-3 = tested on: SK-OV-3
SNB-19 = tested on: SNB-19
SR = tested on: SR
SW-620 = tested on: SW-620
UACC-62 = tested on: UACC-62
SN12C = tested on: SN12C

Measured: GI50

C/C(=N\NC(N)=O)C(CN1CCOCC1)C(c1ccccc1)c1c(O)c2ccccc2oc1=O (configuration not stated)
inactive: EKVX > 100 µM | HCT-116 > 100 µM | HOP-92 > 100 µM | Hs-578T > 100 µM | K562 > 100 µM | MDA-MB-435 > 100 µM | NCI-H23 > 100 µM | OVCAR-3 > 100 µM | OVCAR-5 > 100 µM | OVCAR-8 > 100 µM | PC-3 > 100 µM | SF-268 > 100 µM | SK-MEL-28 > 100 µM | SK-MEL-2 > 100 µM | SK-OV-3 > 100 µM | SNB-19 > 100 µM | SR > 100 µM | SW-620 > 100 µM | UACC-62 > 100 µM

Clc1ccc(C(c2ccccc2Cl)C(Cl)Cl)cc1 (configuration not stated) [MITOTANE]
inactive: EKVX 17.3 µM | HCT-116 13.2 µM | HOP-92 13 µM | Hs-578T 3.26 µM | K562 16.3 µM | MDA-MB-435 3.08 µM | NCI-H23 19 µM | OVCAR-3 15.6 µM | OVCAR-5 18 µM | OVCAR-8 20.7 µM | PC-3 3.39 µM | SF-268 18.5 µM | SK-MEL-28 18.9 µM | SK-MEL-2 18.3 µM | SK-OV-3 18.1 µM | SN12C 16.7 µM | SNB-19 17.6 µM | SR 18.7 µM | SW-620 18 µM | UACC-62 14.8 µM

CC1=C(O)C(=O)c2ccccc2C1=O
inactive: EKVX > 100 µM | HCT-116 > 100 µM | HOP-92 > 100 µM | Hs-578T 78.2 µM | K562 78.5 µM | MDA-MB-435 52.6 µM | NCI-H23 12.3 µM | OVCAR-3 43.4 µM | OVCAR-5 > 100 µM | OVCAR-8 > 100 µM | PC-3 82.6 µM | SF-268 94.6 µM | SK-MEL-28 > 100 µM | SK-MEL-2 > 100 µM | SK-OV-3 > 100 µM | SN12C > 100 µM | SNB-19 > 100 µM | SR 88.5 µM | SW-620 84.3 µM | UACC-62 39.3 µM

COc1cc(C[S+]([O-])c2ccc(O)cc2)cc(OC)c1OC (configuration not stated)
inactive: EKVX > 100 µM | HCT-116 > 100 µM | HOP-92 > 100 µM | Hs-578T > 100 µM | K562 > 100 µM | MDA-MB-435 > 100 µM | NCI-H23 > 100 µM | OVCAR-3 > 100 µM | OVCAR-5 > 100 µM | OVCAR-8 > 100 µM | PC-3 > 100 µM | SF-268 > 100 µM | SK-MEL-28 > 100 µM | SK-MEL-2 > 100 µM | SK-OV-3 > 100 µM | SN12C > 100 µM | SNB-19 > 100 µM | SR > 100 µM | SW-620 > 100 µM | UACC-62 > 100 µM

O=[N+]([O-])c1ccc2sc(/C=N/c3cnccn3)cc2c1
inactive: EKVX 39.1 µM | HCT-116 37 µM | HOP-92 60.1 µM | Hs-578T 16.7 µM | K562 21.4 µM | MDA-MB-435 18.4 µM | NCI-H23 63 µM | OVCAR-3 23.7 µM | OVCAR-5 36.4 µM | OVCAR-8 45.4 µM | PC-3 31 µM | SF-268 27.2 µM | SK-MEL-28 28.3 µM | SK-MEL-2 23.2 µM | SK-OV-3 30.4 µM | SN12C 45.6 µM | SNB-19 65 µM | SR 14.5 µM | SW-620 25 µM | UACC-62 17.1 µM

COC(=O)C1(C)CCCC2(C)c3cc(OC)ccc3C(=O)C(Br)C12 (configuration not stated)
inactive: EKVX > 10 µM | HCT-116 2.79 µM | HOP-92 > 10 µM | Hs-578T > 10 µM | K562 3.68 µM | MDA-MB-435 4.19 µM | NCI-H23 > 10 µM | OVCAR-3 5.35 µM | OVCAR-5 8.02 µM | OVCAR-8 1.99 µM | PC-3 9.73 µM | SF-268 > 10 µM | SK-MEL-28 > 10 µM | SK-MEL-2 > 10 µM | SK-OV-3 > 10 µM | SN12C 8.61 µM | SNB-19 > 10 µM | SR 2.76 µM | SW-620 2.15 µM | UACC-62 > 10 µM

O=[N+]([O-])c1ccc(N/N=C/CC(O)(C(F)(F)F)C(F)(F)F)c([N+](=O)[O-])c1
inactive: EKVX 5.35 µM | HCT-116 3.03 µM | HOP-92 2.17 µM | Hs-578T 2.74 µM | K562 3.55 µM | MDA-MB-435 4.13 µM | NCI-H23 2.77 µM | OVCAR-3 2.8 µM | OVCAR-8 4.23 µM | PC-3 3.24 µM | SF-268 4.26 µM | SK-MEL-28 7.78 µM | SK-MEL-2 2.21 µM | SK-OV-3 4.8 µM | SN12C 3.41 µM | SNB-19 5.04 µM | SR 5.06 µM | SW-620 7.33 µM | UACC-62 4.06 µM

Cc1cc(S(=O)(=O)Nc2nc(Nc3ccc(Cl)cc3)n[nH]2)c(S)cc1Cl
inactive: EKVX > 100 µM | HCT-116 > 100 µM | HOP-92 > 100 µM | Hs-578T 86.5 µM | K562 > 100 µM | MDA-MB-435 > 100 µM | NCI-H23 82.8 µM | OVCAR-3 > 100 µM | OVCAR-5 > 100 µM | OVCAR-8 > 100 µM | PC-3 > 100 µM | SF-268 75.5 µM | SK-MEL-28 > 100 µM | SK-MEL-2 > 100 µM | SK-OV-3 > 100 µM | SN12C > 100 µM | SNB-19 80.9 µM | SR > 100 µM | SW-620 > 100 µM | UACC-62 18.9 µM

O=C(O)CNC(=O)C(CSC(=O)OCC1c2ccccc2-c2ccccc21)NC(=O)CCC(NC(=O)OCC1c2ccccc2-c2ccccc21)C(=O)O (configuration not stated)
inactive: EKVX 17.8 µM | HCT-116 18 µM | HOP-92 21.7 µM | Hs-578T 68.1 µM | K562 17.1 µM | MDA-MB-435 18.9 µM | NCI-H23 27 µM | OVCAR-3 > 100 µM | OVCAR-5 > 100 µM | OVCAR-8 16.4 µM | PC-3 15.5 µM | SF-268 17.5 µM | SK-MEL-28 > 100 µM | SK-MEL-2 > 100 µM | SK-OV-3 > 100 µM | SN12C 16.5 µM | SNB-19 > 100 µM | SR 3.49 µM | SW-620 19 µM

Oc1ccc(/C=C/c2cc(O)cc3c2C(c2cc(O)cc(O)c2)C(c2ccc(O)c(O)c2)O3)cc1 (configuration not stated)
inactive: EKVX 25.3 µM | HCT-116 35.9 µM | HOP-92 37.1 µM | Hs-578T 26.4 µM | MDA-MB-435 32.6 µM | NCI-H23 18.8 µM | OVCAR-3 27.8 µM | OVCAR-5 35.6 µM | OVCAR-8 21.6 µM | PC-3 31.3 µM | SF-268 30.6 µM | SK-MEL-28 25.1 µM | SK-MEL-2 28.4 µM | SK-OV-3 32.5 µM | SN12C 17.6 µM | SNB-19 18.6 µM | SR 17.6 µM | SW-620 39.2 µM | UACC-62 18.2 µM

COc1ccc(/C=C2/C(=O)C(c3ccccc3)N(c3ccccc3)C2=O)cc1OC (configuration not stated)
inactive: EKVX > 10 µM | HCT-116 > 10 µM | HOP-92 > 10 µM | Hs-578T > 10 µM | MDA-MB-435 > 10 µM | NCI-H23 > 10 µM | OVCAR-3 > 10 µM | OVCAR-5 > 10 µM | OVCAR-8 > 10 µM | PC-3 > 10 µM | SF-268 > 10 µM | SK-MEL-28 > 10 µM | SK-MEL-2 > 10 µM | SK-OV-3 > 10 µM | SN12C > 10 µM | SNB-19 > 10 µM | SR > 10 µM | SW-620 > 10 µM | UACC-62 > 10 µM

CC1=C/C(=N/N2C(=O)/C(=C/c3ccc(Cl)cc3)N=C2c2ccccc2)CC(C)(C)C1
inactive: EKVX 81.7 µM | HCT-116 91.8 µM | HOP-92 94.8 µM | Hs-578T 52 µM | K562 66.4 µM | MDA-MB-435 51.3 µM | NCI-H23 > 100 µM | OVCAR-5 > 100 µM | OVCAR-8 32.7 µM | PC-3 61.2 µM | SF-268 73.3 µM | SK-MEL-28 > 100 µM | SK-MEL-2 24.9 µM | SK-OV-3 > 100 µM | SN12C > 100 µM | SNB-19 65.5 µM | SR 31 µM | SW-620 76.2 µM | UACC-62 61.9 µM

CN(C)CCCN1c2ccccc2Sc2ccc(C(F)(F)F)cc21 [TRIFLUPROMAZINE HYDROCHLORIDE]
inactive: EKVX 17.6 µM and 15.7 µM | HCT-116 14.2 µM and 14.4 µM | HOP-92 12.3 µM | Hs-578T 14.1 µM | K562 > 10 µM and 13.8 µM | MDA-MB-435 15.8 µM | NCI-H23 18.3 µM and 16.5 µM | OVCAR-5 17.1 µM | OVCAR-8 15.6 µM | PC-3 15.2 µM | SF-268 14 µM and 15 µM | SK-MEL-28 16.3 µM and 14.8 µM | SK-MEL-2 16 µM | SK-OV-3 18.6 µM and 16.6 µM | SN12C 16 µM and 17.3 µM | SNB-19 16.6 µM and 15 µM | SR 18.1 µM and 17.6 µM | SW-620 15.8 µM and 17.2 µM | UACC-62 16.6 µM and 16.8 µM

CC(C)C1CC(CO)(CNc2cc(Cl)nc(N)n2)C1 (configuration not stated)
inactive: EKVX 7.06 µM | HCT-116 41.3 µM | HOP-92 45 µM | Hs-578T 25.6 µM | K562 9.57 µM | MDA-MB-435 46.1 µM | OVCAR-3 17.9 µM | OVCAR-5 81.8 µM | OVCAR-8 88.9 µM | PC-3 71 µM | SF-268 5 µM | SK-MEL-28 > 100 µM | SK-MEL-2 45.9 µM | SK-OV-3 > 100 µM | SN12C > 100 µM | SNB-19 > 100 µM | SR 14.9 µM | SW-620 > 100 µM | UACC-62 > 100 µM
